Results reported in patent US20150258129A1, “Method for Increasing the Activity of Lysosomal Enzymes” (Mount Sinai School of Medicine of New York University, priority 1998, published 2015).
Substitutions are numbered along the chain they refer to.

Legend:
[1] = molecular target: T1, glucocerebrosidase (β-Glu), L444P/L444P (Homo sapiens, UniProt P04062, L483P); assay: Intracellular enhancement of β-Glu activity in Gaucher fibroblasts (L444P/L444P); assay type: cell-based; settings: 10 μM, 5 days
T1 construct: endogenous in cells; host or cells: human Gaucher patient fibroblasts, genotype L444P/L444P
T1 sequence (P04062 40-536 L483P): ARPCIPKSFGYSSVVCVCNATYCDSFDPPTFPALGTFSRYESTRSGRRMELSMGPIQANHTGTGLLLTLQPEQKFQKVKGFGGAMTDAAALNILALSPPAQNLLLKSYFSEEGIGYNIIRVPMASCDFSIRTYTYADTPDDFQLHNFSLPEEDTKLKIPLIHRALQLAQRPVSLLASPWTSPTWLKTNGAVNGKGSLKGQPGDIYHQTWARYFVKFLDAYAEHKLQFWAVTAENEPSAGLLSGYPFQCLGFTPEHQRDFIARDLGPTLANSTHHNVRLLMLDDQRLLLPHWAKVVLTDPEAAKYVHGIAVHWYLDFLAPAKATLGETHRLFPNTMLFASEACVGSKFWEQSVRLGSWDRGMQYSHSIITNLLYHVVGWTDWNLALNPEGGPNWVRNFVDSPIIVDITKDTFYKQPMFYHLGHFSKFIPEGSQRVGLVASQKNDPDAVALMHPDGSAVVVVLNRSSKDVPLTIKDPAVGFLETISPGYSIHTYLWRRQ

[2] = system: globotriaosylceramide metabolism; assay: Intracellular globotriaosylceramide metabolism with inhibitor in the medium; assay type: cell-based; settings: 20 μM in the medium
[3] = molecular target: T2, mutant α-Gal A (R301Q) (Homo sapiens, UniProt P06280, R301Q); assay: Intracellular enhancement of α-Gal A activity in Fabry lymphoblasts; assay type: cell-based; set-up: endogenous in cells; host or cells: Epstein-Barr virus-transformed lymphoblasts from a Fabry patient (R301Q); settings: for increase of α-Gal A enzyme activity in R301Q lymphoblasts: inhibitor at 100 μM; for intracellular α-Gal A activity in Fabry lymphoblasts (summary): concentration ranges of 10-1000 μM; for α-Gal A activity in R301Q lymphoblasts with increasing concentration of calystegine compound: range 100-1000 μM, FIG. 6
T2 sequence (P06280 32-429 R301Q): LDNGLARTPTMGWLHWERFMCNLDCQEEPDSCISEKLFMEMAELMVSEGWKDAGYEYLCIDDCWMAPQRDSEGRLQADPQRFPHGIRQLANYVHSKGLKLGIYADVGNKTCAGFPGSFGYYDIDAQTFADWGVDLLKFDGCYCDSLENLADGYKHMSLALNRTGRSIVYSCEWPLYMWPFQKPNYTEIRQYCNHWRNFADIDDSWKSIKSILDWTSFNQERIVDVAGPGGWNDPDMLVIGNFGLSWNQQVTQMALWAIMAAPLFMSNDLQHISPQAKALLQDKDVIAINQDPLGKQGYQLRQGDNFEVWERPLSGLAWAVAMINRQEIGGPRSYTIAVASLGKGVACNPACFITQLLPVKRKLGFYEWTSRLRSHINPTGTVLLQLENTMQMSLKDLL
Procedure: FIG. 4B depicts results in which each inhibitor was added to the culture medium of R301Q lymphoblasts at a concentration of 100 μM. Cells were subsequently incubated for 4 days. After being washed twice with phosphate-buffered saline, the intracellular enzyme activity was determined with 4-MU-α-Gal as the substrate.
R301Q lymphoblasts were cultured with DGJ (4) ([…]), α-allo-HNJ (9) (▪), α-galacto-HNJ (10) (▴), or β-1-C-butyl-DGJ (16) (♦) at 1-1000 μM for 4 days before being collected for enzyme assay.
In FIG. 6B, R301Q lymphoblasts were cultured with calystegine B2 (18) and the results are shown therein. In FIG. 6C, R301Q lymphoblasts were cultured with N-methyl calystegine A3 (19) and the results are shown therein. In FIG. 6D R301Q lymphoblasts were cultured with N-methyl calystegine B2 (20) at 100-1000 μM for 4 days before being collected for enzyme assay and the results are shown therein.
(§1) The Epstein-Barr virus-transformed lymphoblast lines from a normal adult and a Fabry patient with R301Q mutation in α-Gal A (38) were cultured in RPMI-1640 medium (Nissui Pharmaceutical Co., Tokyo, Japan) supplemented with 10% fetal calf serum (FCS) at 37° C. under 5% CO2. Human fibroblasts from Gaucher and GM1-gangliosidosis patients were cultured in McCoy 5A medium supplemented with 10% FCS at 37° C. under 5% CO2.
(§2) Cells were cultured in the presence or absence of inhibitor for 4 days. After being washed twice with phosphate-buffered saline (PBS), the cells were harvested and homogenized in 200 μl of H2O, and 10 μl of the supernatant obtained by centrifugation at 10,000 g was incubated at 37° C. with 50 μl of the substrate solution composed by 6 mM 4-methylumbelliferyl α-D-galactoside (4-MU-α-Gal) and 90 mM N-acetylgalactosamine in 0.1 M citrate buffer (pH 4.5) for enzyme assay. One unit of intracellular enzyme activity was defined as one nmol of 4-methylumbelliferone released per hour at 37° C.

[4] = system: lysosomal acid β-galactosidase (β-Gal); assay: Intracellular enhancement of β-Gal activity in GM1-gangliosidosis fibroblasts; assay type: cell-based, human; settings: for β-Gal enhancement effect in fibroblasts of infant type disease (BGF-1 and BGF-6): DGJ 500 μM, 4-epi-isofagomine 50 μM; for intracellular β-Gal activity in GM1-gangliosidosis fibroblasts (summary): concentration ranges of 50-500 μM
Procedure: In FIG. 7A, GM1-gangliosidosis fibroblasts were cultured with DGJ (4) at 500 μM for 5 days before being collected for enzyme assay. In FIG. 7B, GM1-gangliosidosis fibroblasts were cultured with 4-epi-isofagomine (21) at 50 μM for 5 days before being collected for enzyme assay. Strains BGF-1 and BGF-6 were diagnosed as infantile type, and all others were juvenile or adult types.
as §1
as §2, with “for 5” for “for 4”, “with PBS,” for “with phosphate-buffered saline (PBS),”, “solution of 1” for “solution composed by 6”, “4-methylumbelliferyl β-D-galactoside (4-MU-β-Gal)” for “4-methylumbelliferyl α-D-galactoside (4-MU-α-Gal) and 90 mM N-acetylgalactosamine”

[5] = molecular target: T3, human lysosomal α-Gal A (Homo sapiens, UniProt P06280); assay: In vitro inhibition of α-Gal A (recombinant, expressed in Sf-9 insect cells); assay type: biochemical
T3 construct: made in house; host or cells: Sf-9 insect cells, recombinant baculovirus
T3 sequence (P06280 32-429): T2 sequence (P06280 32-429 R301Q) with Q270R

[6] = molecular target: T2, mutant α-Gal A (R301Q); settings: neutral pH; cited from earlier work
[7] = molecular target: coffee bean α-galactosidase (Coffea arabica, UniProt Q42656); settings: cited from earlier work
[8] = molecular target: T4, mutant (R301Q) α-Gal A (Homo sapiens, UniProt P06280, R301Q); settings: oral administration, mice overexpressing mutant (R301Q) α-Gal A; cited from earlier work
T4 construct: host or cells: transgenic mice (organs)
T4 sequence (P06280 32-429 R301Q): T2 sequence (P06280 32-429 R301Q)

[9] = molecular target: T2, mutant α-Gal A (R301Q); set-up: endogenous in cells; host or cells: Epstein-Barr virus-transformed lymphoblasts from a Fabry patient (R301Q); settings: R301Q or Q279E mutations; cited from earlier work
[10] = molecular target: T5, glucocerebrosidase (β-Glu), N370S/N370S (Homo sapiens, UniProt P04062, N409S); assay: Intracellular enhancement of β-Glu activity in Gaucher fibroblasts (N370S/N370S); assay type: cell-based; settings: concentration ranges of 0.05-100 μM
T5 construct: endogenous in cells; host or cells: human Gaucher patient fibroblasts, genotype N370S/N370S
T5 sequence (P04062 40-536 N409S): T1 sequence (P04062 40-536 L483P) with N370S, P444L

[11] = molecular target: human β-glucocerebrosidase (Homo sapiens, UniProt P04062); assay: In vitro inhibition of human β-glucocerebrosidase; assay type: biochemical; settings: 0.1M citrate buffer (pH 5.2), 4-MU-β-Glu as substrate
human β-glucocerebrosidase, sequence (P04062 40-536): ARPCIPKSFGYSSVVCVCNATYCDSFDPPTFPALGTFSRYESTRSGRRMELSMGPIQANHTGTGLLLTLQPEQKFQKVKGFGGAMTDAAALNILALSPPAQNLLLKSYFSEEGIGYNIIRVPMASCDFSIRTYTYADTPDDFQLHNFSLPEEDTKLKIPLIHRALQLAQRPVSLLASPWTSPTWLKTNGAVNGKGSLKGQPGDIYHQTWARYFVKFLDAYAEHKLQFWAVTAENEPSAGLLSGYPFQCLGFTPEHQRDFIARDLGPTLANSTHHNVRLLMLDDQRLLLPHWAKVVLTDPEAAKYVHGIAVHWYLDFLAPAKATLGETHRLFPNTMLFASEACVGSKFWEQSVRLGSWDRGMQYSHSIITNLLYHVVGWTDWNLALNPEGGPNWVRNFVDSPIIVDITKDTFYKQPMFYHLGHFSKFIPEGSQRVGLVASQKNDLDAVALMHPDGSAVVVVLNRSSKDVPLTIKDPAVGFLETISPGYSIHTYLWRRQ

coffee bean α-galactosidase, sequence (Q42656 16-378): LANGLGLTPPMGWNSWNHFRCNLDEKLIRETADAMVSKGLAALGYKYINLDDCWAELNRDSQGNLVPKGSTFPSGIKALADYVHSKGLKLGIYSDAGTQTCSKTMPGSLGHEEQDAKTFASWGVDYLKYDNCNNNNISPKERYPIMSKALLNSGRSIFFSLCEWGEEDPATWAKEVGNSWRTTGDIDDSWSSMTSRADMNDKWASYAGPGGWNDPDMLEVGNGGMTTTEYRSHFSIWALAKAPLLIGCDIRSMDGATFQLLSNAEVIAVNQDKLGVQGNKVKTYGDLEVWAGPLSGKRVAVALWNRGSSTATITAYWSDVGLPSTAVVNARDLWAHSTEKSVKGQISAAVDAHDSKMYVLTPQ

O[C@@H]1C[C@]2(O)N[C@H]1C[C@@H](O)[C@@H]2O [calystegine B1]
increase of residual β-Glu activity in Gaucher fibroblasts [1]: 76%

O[C@@H]1[C@@H](O)[C@H](O)[C@]2(O)C[C@@H](O)[C@H]1N2 [calystegine C1]
increase of residual β-Glu activity in Gaucher fibroblasts [1]: 136%

OC[C@H]1NC[C@H](O)[C@@H](O)[C@H]1O [compound 4, 1-Deoxygalactonojirimycin]
intracellular inhibition of globotriaosylceramide metabolism [2]: did not cause intracellular inhibition | α-Gal A enzyme activity in R301Q lymphoblasts reached, % of normal ([3]; 100 μM, 4 days): 49 % of normal | increase of α-Gal A enzyme activity in R301Q lymphoblasts ([3]; 4 days): about 14 fold | α-Gal A activity in R301Q lymphoblasts with increasing inhibitor concentration ([3]; range 1-100 μM, FIG. 5): elevated with increasing inhibitor concentration | increase of residual β-Gal activity in BGF-7 fibroblasts ([4]; 500 μM, 5 days, FIG. 7A): 27 fold | β-Gal enhancement effect in fibroblasts of infant type disease (BGF-1 and BGF-6) ([4]; 5 days): not efficient | intracellular β-Gal activity in GM1-gangliosidosis fibroblasts (summary) [4]: effectively enhance | inhibition mode toward α-Gal A (Lineweaver-Burk plots) [5]: competitive inhibitors | in vitro stability of mutant α-Gal A (R301Q) [6]: effectively increased in vitro stability | inhibition of coffee bean α-galactosidase (in words) [7]: extremely powerful inhibitor | enzyme activity in major organs of transgenic mice [8]: substantially elevated the enzyme activity | mutant enzyme activity in lymphoblasts from Fabry patients [9]: enhanced the mutant enzyme activity

CCCCC1NC(CO)C(O)C(O)C1O (stereo not drawn) [compound 16, β-1-C-Butyl-deoxygalactonojirimycin]
intracellular α-Gal A activity in Fabry lymphoblasts (summary) [3]: effectively increase | increase of α-Gal A enzyme activity in R301Q lymphoblasts ([3]; 4 days): 2.3 fold | enhancement of α-Gal A activity in R301Q lymphoblasts ([3]; inhibitor at 1000 μM, 4 days): 6.3 fold | inhibition mode toward α-Gal A (Lineweaver-Burk plots) [5]: competitive inhibitors | Ki ([5]; p-nitrophenyl-α-D-galactopyranoside as substrate, read-out: Ki for α-Gal A, from the slope of Lineweaver-Burk plots): 16 µM | IC50 ([5]; read-out: IC30 and (Ki)*: IC50 values (inhibitor concentration giving 50% inhibition) for α-Gal A, p-nitrophenyl-α-D-galactopyranoside as substrate, pH 4.5): 24 µM | IC50 [7]: 0.71 µM

O[C@@H]1C[C@H]2CC[C@](O)(N2)[C@H]1O [compound 17, Calystegine A3]
intracellular β-Glu activity in Gaucher fibroblasts (summary) [10]: effectively enhance | intracellular α-Gal A activity in Fabry lymphoblasts (summary) [3]: effectively increase | α-Gal A activity in R301Q lymphoblasts with increasing concentration of calystegine compound ([3]; 4 days): elevated with increasing concentration | increase of residual β-Glu activity in Gaucher fibroblasts [1]: 126% | IC50 [11]: 3.1 µM

O[C@@H]1[C@@H](O)[C@H](O)[C@]2(O)CC[C@H]1N2 [compound 18, calystegine B2]
intracellular β-Glu activity in Gaucher fibroblasts (summary) [10]: effectively enhance | intracellular α-Gal A activity in Fabry lymphoblasts (summary) [3]: effectively increase | α-Gal A activity in R301Q lymphoblasts with increasing concentration of calystegine compound ([3]; 4 days): elevated with increasing concentration | increase of residual β-Glu activity in Gaucher fibroblasts [1]: 230% | IC50 [11]: 0.99 µM

OC[C@H]1CNC[C@@H](O)[C@H]1O [compound 21, 4-epi-isofagomine]
β-Gal enhancement effect in fibroblasts of infant type disease (BGF-1 and BGF-6) ([4]; 5 days): not efficient | intracellular β-Gal activity in GM1-gangliosidosis fibroblasts (summary) [4]: effectively enhance | intracellular β-Gal activity elevated to, % of normal ([4]; fibroblasts of juvenile and adult types, 5 days, FIG. 7B (50 μM)): 9-53 % of normal
